Data published in PubChem BioAssay (NCI).
Values joined by “and” are separate entries in the source; they are usually repeats but may differ in a detail not shown here. Equal values may be shown once.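 Cultured in 96-well plates, cells were exposed to test compound for 48 hours across five concentrations. Here, GI50 denotes the concentration required for 50% inhibition of growth. TGI marks complete inhibition of growth.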 Where a SMILES comes first, the peptide text is derived from it. The star is where a group is joined. Trt = c1ccc(C(c2ccccc2)(c2ccccc2)*)cc1; Cbz = O=C(OCc1ccccc1)*

Assays:
Assay in all cases: NCI anticancer screen, dose series, 48 h
SNB-19 CNS = tested on: SNB-19 CNS
OVCAR-3 ovarian = tested on: OVCAR-3 ovarian
UO-31 renal = tested on: UO-31 renal
MDA-MB-435 = tested on: MDA-MB-435
SK-MEL-2 melanoma = tested on: SK-MEL-2 melanoma
HT29 colon = tested on: HT29 colon
UACC-257 melanoma = tested on: UACC-257 melanoma
NCI-H23 lung = tested on: NCI-H23 lung
UACC-62 melanoma = tested on: UACC-62 melanoma
SF-539 CNS = tested on: SF-539 CNS

Row | Structure (SMILES) | GI50 (SNB-19 CNS) [µM] | TGI (SNB-19 CNS) [µM] | GI50 (OVCAR-3 ovarian) [µM] | TGI (OVCAR-3 ovarian) [µM] | GI50 (UO-31 renal) [µM] | TGI (UO-31 renal) [µM] | GI50 (MDA-MB-435) | TGI (MDA-MB-435) | GI50 (SK-MEL-2 melanoma) | TGI (SK-MEL-2 melanoma) | GI50 (HT29 colon) [µM] | TGI (HT29 colon) [µM] | GI50 (UACC-257 melanoma) [µM] | TGI (UACC-257 melanoma) | GI50 (NCI-H23 lung) [µM] | TGI (NCI-H23 lung) [µM] | GI50 (UACC-62 melanoma) [µM] | TGI (UACC-62 melanoma) | GI50 (SF-539 CNS) [µM] | TGI (SF-539 CNS)
1 | CN1CCN(CC(=O)N(C)c2ccc(N=C(c3ccccc3)c3c(O)[nH]c4ccc(C#N)cc34)cc2)CC1 | 4.16 | 16.6 | 3.19 | 14.2 | 2.42 | 11.4 | 1.66 µM | 4.04 µM | 3.39 µM | 15.7 µM | 0.712 | 15 | 2.5 | 6.2 µM | 2.87 | 12.2 | 4.57 | 14.3 µM | 0.961 | 2.23 µM
2 | C=C1C[C@H]2C=Nc3cc(OCCCOc4cc5c(cc4OC)C(=O)N4CC(=C)C[C@H]4C=N5)c(OC)cc3C(=O)N2C1 | 0.00545 | 4.39 | – | 0.2 | – | 0.289 | 0.0134 µM and < 0.0148 µM | 0.0339 µM and < 0.215 µM | 0.0168 µM and < 0.0128 µM | 0.0347 µM and < 0.0282 µM | – | 19.7 | 0.0213 | 0.0421 µM and 0.0917 µM | – | 0.0158 | 0.000264 | 0.000834 µM and < 0.0123 µM | 0.00459 | 0.0117 µM and 0.0286 µM
3 | COc1ccc2c(c1)OC(N)=C(C#N)C2c1cc(OC)c(OC)c(OC)c1 (stereo not given) | 0.0864 | > 100 | 0.0253 | 0.0648 | 0.433 | > 100 | 0.0189 µM | – | 0.0321 µM | 0.151 µM | 0.0328 | 0.172 | 0.0457 | > 100 µM | 0.0362 | > 47.7 | 0.0343 | > 100 µM | 0.0316 | 31.8 µM
4 | N#CCn1c(=O)c(Oc2ccc(F)cc2F)cc2cnc(NC3CCOCC3)nc21 | > 25 | > 25 | > 25 | > 25 | > 19.8 | > 25 | > 25 µM | > 25 µM | > 25 µM | > 25 µM | > 25 | > 25 | > 25 | > 25 µM | > 25 | > 25 | > 25 | > 25 µM | > 25 | > 25 µM
5 | COC(=O)C(CO)NC(=O)C(CSC(c1ccccc1)(c1ccccc1)c1ccccc1)NC(=O)OCc1ccccc1 (stereo not given) (Cbz-Cys(Trt)-Ser-OMe; configuration not given here) | – | 50.7 | – | 28.6 | – | 28.5 | – | 30.2 µM | – | 34.5 µM | – | 33.3 | – | 25.6 µM | – | 40.8 | – | 24.9 µM | – | 26.3 µM
6 | O=C1NC(=NCCc2ccc(F)cc2)S/C1=C\c1ccc2ncccc2c1 | > 25 | > 25 | > 25 | > 25 | > 25 | > 25 | > 25 µM | > 25 µM | > 25 µM | > 25 µM | > 25 | > 25 | > 25 | > 25 µM | > 25 | > 25 | > 25 | > 25 µM | > 25 | > 25 µM
7 | c1cc(N[C@@H]2CCNC2)nc(-c2cnc3ccc(-c4cn[nH]c4)cn23)c1 | 4.26 | 34.9 | 2.92 | 24.8 | > 69.3 | > 100 | 11.2 µM | 26.7 µM | 2.55 µM | 6.82 µM | 12.1 | > 96.8 | 16.1 | 53.3 µM | 5.07 | 35.9 | 5.02 | 20.3 µM | 1.61 | 8.17 µM
8 | COc1ccc(C(O)c2cc3c(N)c(C(=O)Nc4ccc(Cl)cc4)sc3nc2C)cc1 (stereo not given) | 4.16 | 44.6 | 2 | 4.78 | 3.8 | 23 | 0.317 µM | 1.17 µM | 8.6 µM | 69.6 µM | 2.49 | 8.73 | 4.99 | 57.5 µM | 5.07 | 52.5 | 1.86 | 32.8 µM | 2.4 | 8.08 µM
9 | Clc1nccc2c(-c3csc(-c4c[nH]c5ccc(Br)cc45)n3)c[nH]c12 | 3.25 | 11.6 | 3.45 | 15 | 0.932 | 11.5 | 3.43 µM | 13 µM | 4.09 µM | 16.4 µM | 2.66 | 8.22 | 2.68 | 4.88 µM | 2.42 | 8.57 | 2.19 | 4.84 µM | 1.87 | 6.14 µM
